{
  "source": "patent US6872523B1",
  "about": "“Materials and methods for molecular detection of clinically relevant pathogenic fungal species” (The Board of Regents of the University of Nebraska, priority 2000, dated 2005)",
  "origin": "cited, not measured here",
  "key": {"A. niger": {"system": "A. niger", "conditions": "low end of the reported MIC range"}, "A. fumigatus": {"system": "A. fumigatus", "conditions": "low end of the reported MIC range"}, "A. flavus": {"system": "A. flavus", "conditions": "high end of the reported MIC range"}, "A. nidulans": {"system": "A. nidulans", "conditions": "high end of the reported MIC range"}, "A. terreus isolates": {"system": "A. terreus isolates", "conditions": "share of A. terreus isolates resistant to AmB (refs 10, 17, 22)"}},
  "data": [
    {"molecule": "C[C@@H]1[C@H](O)[C@@H](C)/C=C/C=C/C=C/C=C/C=C/C=C/C=C/[C@H](O[C@@H]2O[C@H](C)[C@@H](O)[C@H](N)[C@@H]2O)C[C@@H]2O[C@](O)(C[C@@H](O)C[C@@H](O)[C@H](O)CC[C@@H](O)C[C@@H](O)CC(=O)O[C@H]1C)C[C@H](O)[C@H]2C(=O)O", "note": "[AmB, amphotericin B]", "values": [
      {"measurement": "AmB MIC", "setting": "A. niger", "result": 0.5, "unit": "µg/mL"},
      {"measurement": "AmB MIC", "setting": "A. fumigatus", "result": 0.5, "unit": "µg/mL"},
      {"measurement": "AmB MIC", "setting": "A. flavus", "result": 16, "unit": "µg/mL"},
      {"measurement": "AmB MIC", "setting": "A. nidulans", "result": 16, "unit": "µg/mL"},
      {"measurement": "isolates reported as resistant", "setting": "A. terreus isolates", "result": "over 95%"}
    ]}
  ]
}
